The values that follow come from PubChem BioAssay (NCI).

Holding throughout (assay): NCI-60 cell line screen, 48 h
For assay [1], the system named is DU-145 prostate.
The subject of assay [2] is HL-60(TB) leukemia.
Assay [3] deals with T-47D breast.
Assay [4] concerns SK-OV-3 ovarian.
In assay [5] the test system is HOP-62 NSCLC.
Assay [6] has as its system A498 renal.
The subject of assay [7] is CCRF-CEM leukemia.
Assay [8] concerns HCC-2998 colon.
For assay [9], the system named is MOLT-4 leukemia.
For assay [10], the system named is SR leukemia.
Assay [11] deals with M14 melanoma.
Assay [12] concerns HT29 colon.
The test system of assay [13] is UACC-257 melanoma.
Assay [14] has as its system SF-539 CNS.

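Cultured in 96-well plates, cells were exposed to test compound for 48 hours across five concentrations. GI50 = concentration required for 50% inhibition of growth. The concentration for full growth arrest is given as TGI.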

On to `CC(=O)O[C@H]1CC[C@@]2(C)C(=CC[C@@H]3[C@@H]2CC[C@]2(C)c4nc(Cl)ccc4C[C@@H]32)C1`, for which the TGI in [1], in [2], in assay [3], in assay [4], in assay [5] and in [6] was above 100 µM throughout. Further, the TGI is 58.4 µM in assay [7]; above 100 µM in assay [8]; above 100 µM in [9]; above 100 µM in assay [10]; above 100 µM in assay [11]; above 100 µM in [12]. This molecule registered a TGI in assay [13] above 100 µM.
`COc1cc(O)c2c(=O)c(OC)c(-c3ccc(OC)c(OC)c3)oc2c1`: the GI50 was above 100 µM in [1]; 31.1 µM in [3]; 58.5 µM in assay [5]; 94.4 µM in assay [8]; above 100 µM in [11]; above 100 µM in [12]. In addition, the TGI in [1], in assay [2], in [3], in assay [4], in assay [5] and in assay [6] was above 100 µM each time. For the same molecule, the TGI in assay [7], in [8], in [11], in [12] and in [13] was above 100 µM throughout.
On to `c1ccc(CC2COC(c3cccs3)=N2)cc1` (stereo not given), for which the TGI in assay [1], in assay [2], in [3], in [4], in assay [5] and in [7] was above 100 µM throughout. Further, the TGI in [8], in assay [9], in [10], in assay [11], in [12] and in assay [14] was above 100 µM in each case. Further, the TGI in assay [13] was above 100 µM.
`COc1cc(Nc2nc3cc(C(F)(F)F)ccc3n3cccc23)cc(OC)c1OC`: the TGI is above 100 µM in assay [1]; above 100 µM in assay [2]; 9.91 µM in [3]; above 100 µM in [4]; above 100 µM in assay [5]; above 100 µM in assay [6]. Further, the TGI in assay [7], in assay [8], in assay [9], in assay [11], in assay [14] and in assay [13] was above 100 µM throughout.
Consider `CCOC(=O)C1CCCCN1C(=O)Cc1c[nH]c2ccccc12` (stereo not given), for which the TGI was above 100 µM in assay [1]; 58.6 µM in [2]; above 100 µM in [3]; above 100 µM in [4]; above 100 µM in assay [5]; above 100 µM in [6]. In addition, the TGI in assay [7], in assay [8], in assay [9], in assay [11], in assay [12] and in assay [14] was above 100 µM each time. The TGI in [13] is above 100 µM.
As for `Cn1c(=O)n2n(c1=O)C(C)(C13CC4CC(CC(C4)C1)C3)C13CC4CC(CC1C4)CC23` (stereo not given), the TGI in assay [1], in assay [2], in assay [3], in [4], in assay [5] and in assay [6] was above 100 µM throughout. Besides, the TGI in assay [7], in [9], in [10], in assay [11], in [12] and in [14] was above 100 µM each time. The molecule further yielded a TGI in assay [13] above 100 µM.
With `COc1cccc(/N=N/C(=NNC(=O)c2ccc(C)cc2)c2ccc(N(C)C)cc2)c1`, the TGI in assay [1], in assay [2], in assay [3], in assay [4], in assay [7] and in assay [8] was above 100 µM each time. Also, the TGI in assay [9], in assay [10], in [11], in assay [12], in [14] and in assay [13] was above 100 µM each time.
As for `O=c1[nH]c(Nc2nc3ccccc3[nH]2)nc(O)c1Cc1ccccc1`, the TGI in assay [1], in assay [2], in assay [3], in assay [6], in assay [7] and in [9] was above 100 µM each time. The TGI in assay [10], in assay [11], in [12], in [14] and in [13] was above 100 µM in each case.
For the molecule `CN1CCN(c2ccc3c(c2)NCC(=O)N3)CC1`, the TGI in assay [1], in assay [2], in assay [3], in assay [4], in assay [5] and in assay [6] was above 100 µM each time. The TGI in assay [7], in assay [8], in assay [9], in assay [10], in assay [11] and in assay [12] was above 100 µM in each case. This molecule displayed a TGI in assay [13] above 100 µM.
With `Cc1cc2c(cc1C)[n+](=O)c(C(=O)c1ccccc1)c(C(F)(F)F)n2[O-]`, the TGI in [1] is 3.15 µM; in assay [2], 5.73 µM; in [3] it was 5.08 µM; in assay [4], above 28.8 µM; in assay [5], 2.34 µM; in [6], 13.6 µM. In addition, the TGI in assay [7] was 8.52 µM; in assay [9] it was above 28.3 µM; in assay [10] it was 2.9 µM; in [11], 16.5 µM; in [12] it was 9.11 µM; in assay [14], above 35.1 µM. The molecule also had a TGI in [13] of 14.6 µM.
